Experiment [1] has as its system exosome fraction B derived from human breast cancer cells (MDA-MB-231-luc-D3H2LN). Description: Extraction of microRNA (miR-21) from exosomes derived from human breast cancer cells, real-time PCR. In kind it is biochemical. The conditions noted are these: 100 μM peptide, 1×10^11 particles/mL exosomes, 0.4 U/μL RNase inhibitor, 37° C., 24 hours; without peptide 8×10^−14M. How it is done:
(§1) A cell suspension of cell line MDA-MB-231-luc-D3H2LN derived from human breast cancer (=MM231-luc-D3H2LN, provided by the National Cancer Center Research Institute) was seeded in a dish containing RPMI 1640 medium (manufactured by Thermo Fisher Scientific Inc.) containing 10% fetal bovine serum. Subsequently, the cell line was grown at 37° C. under the condition that CO2 concentration was set to 5 volume % using a CO2 incubator, and then the medium was replaced with Advanced RPMI 1640 medium (manufactured by Thermo Fisher Scientific Inc.), followed by culturing for 48 hours, and therefore the culture solution containing exosomes was obtained. This culture solution was centrifuged at 2,000 G for 10 minutes to remove the precipitate, followed by centrifugation at 110,000 G for 70 minutes to precipitate the exosomes, and therefore an exosome fraction B was recovered. The recovered exosome fraction B was suspended in a phosphate buffered saline (PBS) and then stored at 4° C. Storage samples were lightly suspended with a vortex mixer (vibration mixer) before use.
(§2) MicroRNA (miR-21 or miR-16) in the reaction solution was subjected to reverse transcription PCR using reverse transcription primers (manufactured by Thermo Fisher Scientific Inc., Taqman microRNA Assays, RT primers, and hsa-mir-21 or hsa-mir-16) and a reverse transcriptase (manufactured by Thermo Fisher Scientific Inc., Taqman microRNA RT kit).
(§3) The reverse transcription PCR solution obtained by the above described method was processed and by comparing the number of cycles on a calibration curve of microRNA using Taqman Assay primer (manufactured by Thermo Fisher Scientific Inc., Taqman microRNA Assays, Taqman Assay primer, and hsa-mir-21 or hsa-mir-16) and Real-Time PCR Master Mixes (manufactured by Thermo Fisher Scientific Inc., TaqMan Universal PCR Master Mix II, w/UNG) with StepOnePlus Real-Time PCR System, MiR-21 or miR-16 was quantified. The calibration curve of microRNA was created using synthetic miR-21 (manufactured by Sigma-Aldrich Co. LLC.) or synthetic miR-16 (manufactured by Sigma-Aldrich Co. LLC.).
10 μL of the exosome fraction was prepared such that PBS contains 1×10^11 particles/mL of the exosome fraction B derived from human breast cancer cells, various antimicrobial peptides shown in the following Table 2 adjusted to 100 μM, and 0.4 U/μL of RNase inhibitor (manufactured by Toyobo Co., Ltd.), followed by incubation by being left to stand at 37° C. for 24 hours.
MicroRNA eluted into the solution was purified and recovered from the incubated solution of Example 10 above and Comparative Example 6 above by the following method.
First, 160 μL of PBS was added to the reaction solution, and then the solution was added to a centrifugal filter (manufactured by Millipore Corporation, Amicon Ultra 0.5 mL, 100K filter) and centrifuged at 14,000 G for 2 minutes. Subsequently, 100 μL of the centrifuged filtrate was recovered and introduced into a 1.5 mL tube. Next, 350 μL of RLT buffer (manufactured by QIAGEN, attached with RNeasy mini kit) and 675 μL of ethanol were added and mixed in the 1.5 mL tube. The obtained mixture was separated into two parts, and each of the separates was added onto a spin column (manufactured by QIAGEN, attached with RNeasy mini kit) followed by centrifugation at 8,000 G for 15 seconds, and the entire amount of the mixture was passed through the spin column. Thereafter, 500 μL of RPE buffer (manufactured by QIAGEN, attached with RNeasy mini kit) was added thereto and centrifuged at 8,000 G for 15 seconds. Furthermore, 500 μL of the RPE buffer was added to the spin column once more and centrifuged at 8,000 G for 15 seconds. Thereafter, the spin column was centrifuged at 14,000 G for 1 minute to remove the residual RPE buffer. Next, 30 μL of RNase free water (manufactured by QIAGEN, attached with RNeasy mini kit) was added to the spin column, left for 1 minute, and then centrifuged at 14,000 G for 1 minute, and the eluate obtained thereby was recovered. […]

Experiment [2] relates to exosome fraction B derived from human breast cancer cells versus exosome fraction derived from human mammary gland cells (MCF-10A, normal cells). Put plainly: Selectivity: miR-16 ratio, breast cancer exosomes versus mammary gland normal cell exosomes (Formula 1). In kind it is biochemical. How it is done: as §1
A cell suspension of cell line MCF 10A derived from human mammary epithelial cells (provided by the National Cancer Center Research Institute) was seeded in a dish containing Mammary Epithelium Cell Basal Medium (manufactured by Lonza). Subsequently, the cell line was grown at 37° C. under the condition that CO2 concentration was set to 5 volume % using a CO2 incubator, and then the medium was replaced with a fresh medium, followed by culturing for 48 hours, and the culture solution containing exosomes was obtained. This culture solution was centrifuged at 2,000 G for 10 minutes to remove the precipitate, followed by centrifugation at 110,000 G for 70 minutes to precipitate the exosomes, and an exosome fraction was recovered. The recovered exosome fraction was suspended in a phosphate buffered saline (PBS) and then stored at 4° C. Storage samples were lightly suspended with a vortex mixer (vibration mixer) before use.
as §2, §3
10 μL of the exosome fraction was prepared such that PBS contains 1×10^11 particles/mL of the exosome fraction B derived from human breast cancer cells, various antimicrobial peptides shown in the following Table 4 adjusted to 100 μM, and 0.4 U/μL of RNase inhibitor (manufactured by Toyobo Co., Ltd.), followed by incubation by being left to stand at 37° C. for 24 hours.
Thereafter, the eluted MicroRNA (miR-16) was purified and recovered from the incubated solution by the same method as the above described method for extraction from the incubated solution of Examples 10 and 11 above and Comparative Examples 6 and 7 above. […]

In experiment [3] the test system is exosomes derived from human breast cancer cells (MM231-luc-D3H2LN) in human peripheral blood sample. The note with it: […]10^10 particles/mL exosomes, 100 μM magainin 2 or 8% phenol, 25° C., 24 hours. The method, then: The exosome fraction A prepared from the cell line MM231-luc-D3H2LN derived from human breast cancer cells was added to a peripheral blood sample collected from a healthy person with no cancer (hereinafter will be also referred to as human peripheral blood sample) so as to become an exosome concentration of an actual cancer patient, and thereby an artificial sample of a human peripheral blood of the cancer patient was produced. The human peripheral blood sample was obtained after procurement of the patient informed consent according to the Declaration of Helsinki, similarly to the method described in Japanese Unexamined patent publication No. 2013-198483, for example. Blood was drawn using a blood collection tube containing an anticoagulant.
Using a part of the incubated solution, the exosomes were purified with Exo-Flow32 CD9 IP Kit (manufactured by SBI), and then the number of exosomes in the solution was measured using the nanoparticle analyzer (NanoSight LM10; manufactured by NanoSight, Ltd.). […] In addition, a part of the incubated solution was subjected to the serum component protein electrophoresis.

On to Magainin 2, for which the “Destructive activity (concentration of microRNA miR-21 in eluate)” value in experiment [1] is “A (the concentration of microRNA is 50×10^−14M or more)”. In addition, the mir-16 ratio in experiment [2] (Formula 1, cancer/normal (MCF-10A), 100 μM peptide, 37° C., 24 hours) is reported as 26. In addition, the Selectivity result in experiment [2] (from miR-16 ratio versus Comparative Example 8, breast cancer vs MCF-10A exosomes) is recorded as “B (evaluated as “B” in a case where the calculated miR-16 value was higher than the miR-16 ratio of Comparative Example 8)”. Also, the “exosome amount compared to Comparative Example 3 (no additive)” value in experiment [3] is listed as “decreased”.
